Test results published in US5204352A, “Compounds exhibiting anti-parasitic activity and a method for their use” (The United States of America as represented by the …, priority 1987, dated 1993).

System: Trypanosoma rhodesiense
Assay: In vivo trypanocidal activity in infected mice (protocol based on Rane et al.)
Design: Activity at dosage, value in parentheses (increase in survival): unit not given here
Conditions: for Increase in survival / Trypanocidal activity, cures: subcutaneous; for Activity at dosage (C = Cures) / Activity at dosage, value in parentheses (increase in survival): peritoneal (Table 2)
Method: The compounds of the present invention were evaluated biologically in vivo with groups of 5 mice at various dose levels. Unless otherwise indicated, the data are for subcutaneous administration. Dose levels marked with an asterisk are for peritoneal administration in a HEC+T medium. In addition, Table 2 present results of peritoneal administration with substituted quanylhydrazones. The biological evaluation was done according to a standard protocol based on the method described by Rane et al., Amer. J. Trop. Med Hyg. 25:395 (1976). […]

## C[n+]1c(-c2ccc(C(=N)N)cc2)cn2cc(C(=N)N)ccc21 [BK42748]
26.5 mg/kg
  Increase in survival: 2.3 days
  Trypanocidal activity, cures: 2/5
53 mg/kg
  Increase in survival: 3.0 days
  Trypanocidal activity, cures: 2/5

## C[n+]1c(-c2ccc(C(=N)N)cc2)c([N+](=O)[O-])n2ccccc21 [BK42757]
53 mg/kg
  Increase in survival: 2.5 days
  Trypanocidal activity, cures: 1/5
106 mg/kg
  Increase in survival: 3.0 days
  Trypanocidal activity, cures: 1/5

## Cc1ccc2n(c1)cc(-c1ccc(C(=N)N)cc1)[n+]2C [BK46166]
26.5 mg/kg
  Increase in survival: 4.5 days
  Trypanocidal activity, cures: 2/5
53 mg/kg
  Increase in survival: 1.6 days
  Trypanocidal activity, cures: 2/5
106 mg/kg
  Increase in survival: 5.2 days
  Trypanocidal activity, cures: 2/5

## CCN(CC)CCN=C(N)NN=Cc1ccc(-c2cn3ccccc3[n+]2C)cc1 [BK46175]
0.83 mg/kg, (F)
  Increase in survival: 3.3 days
  Trypanocidal activity, cures: 2/5
0.83 mg/kg, M
  Increase in survival: 6.3 days

## C[n+]1c(-c2ccc(C(N)=NO)cc2)cn2cc(Cl)ccc21 [BK46193]
106 mg/kg
  Increase in survival: 5.2 days
  Trypanocidal activity, cures: 1/5
212 mg/kg
  Increase in survival: 2.9 days
  Trypanocidal activity, cures: 4/5

## CN=C(N)NN=Cc1ccc(-c2cn3ccccc3[n+]2C)cc1 [BK46200]
0.85-1.66 mg/kg, (M)
  Trypanocidal activity, cures: 5/5
3.33-6.65 mg/kg, (F)
  Trypanocidal activity, cures: 5/5

## Cc1ccn2cc(-c3ccc(C=NNC(=N)N)cc3)[n+](C)c2c1 [BK46219]
26.5 mg/kg
  Increase in survival: 10.0 days
  Trypanocidal activity, cures: 8/10

## CSC(=N)NN=Cc1ccc(-c2cn3ccccc3[n+]2C)cc1 [BK47921]
26.5 mg/kg
  Trypanocidal activity, cures: 5/5

## CN=C(N)NN=Cc1ccc(-c2c([N+](=O)[O-])n3ccccc3[n+]2C)cc1 [BK47958]
1.66 mg/kg
  Increase in survival: 3.0 days
  Trypanocidal activity, cures: 8/10

## CN=C(N)NN=Cc1ccc(-c2cn3ccsc3[n+]2C)cc1 [BK47967]
6.66 mg/kg
  Trypanocidal activity, cures: 5/5

## CN(C)C(=N)NN=Cc1ccc(-c2cn3ccccc3[n+]2C)cc1 [BK47976]
6.66 mg/kg
  Trypanocidal activity, cures: 5/5

## C[n+]1c(-c2ccc(C=NNC(=N)N)cc2)c([N+](=O)[O-])n2ccccc21 [BK47985]
1.6 mg/kg
  Increase in survival: 7.0 days
  Trypanocidal activity, cures: 3/10
3.3 mg/kg
  Trypanocidal activity, cures: 5/5
6.6 mg/kg
  Increase in survival: 24.0 days
  Trypanocidal activity, cures: 4/5

## CN(C)C(=N)NN=Cc1ccc(-c2c([N+](=O)[O-])n3ccccc3[n+]2C)cc1 [BK50268]
3.3 mg/kg
  Activity at dosage (C = Cures): INAC
6.7 mg/kg
  Activity at dosage (C = Cures): INAC
13 mg/kg
  Activity at dosage, value in parentheses (increase in survival): 4.5
26 mg/kg
  Activity at dosage, value in parentheses (increase in survival): 5.0
53 mg/kg
  Activity at dosage, value in parentheses (increase in survival): 9.9
106 mg/kg
  Activity at dosage, value in parentheses (increase in survival): 12.5

## C[n+]1c(-c2ccc(C=NNC(=N)N3CCCC3)cc2)cn2ccccc21 [BK50277]
0.1 mg/kg
  Trypanocidal activity, cures: 5/5
0.2 mg/kg
  Trypanocidal activity, cures: 4/5
0.4 mg/kg
  Trypanocidal activity, cures: 5/5
0.8 mg/kg
  Trypanocidal activity, cures: 9/10
1.7 mg/kg
  Trypanocidal activity, cures: 10/10
3.3 mg/kg
  Trypanocidal activity, cures: 5/5

## C[n+]1c(-c2ccc(C=NNc3nccs3)cc2)cn2ccccc21 [BK50302]
0.2 mg/kg
  Increase in survival: 2.0 days
  Trypanocidal activity, cures: 3/5
0.4 mg/kg
  Trypanocidal activity, cures: 5/5
0.8 mg/kg
  Increase in survival: 15.0 days
  Trypanocidal activity, cures: 4/5
106 mg/kg
  Activity at dosage (C = Cures): INAC
212 mg/kg
  Activity at dosage (C = Cures): INAC
424 mg/kg
  Activity at dosage (C = Cures): INAC
